For data set [1], the system named is Rhizoctonia solani (RHIZSO). Kind of data set: microbe, parasite or virus in culture. To be noted: Rhizoctonia solani, read-out: RHIZSO in vitro Growth Inhibition. It is filed as cell-based.
The subject of data set [2] is Phytophthora infestans—PHYTIN. Kind of data set: whole plant or invertebrate. The format is in vivo. To be noted: Phytophthora, in Solanum lycopersicum, 24 h, read-out: PHYTIN in vivo 1 Day Protectant.
The test system of data set [3] is Puccinia recondita—PUCCRT. Kind of data set: Brown Rust of Wheat, in vivo whole plant, 24 Hour Protectant. The following applies: 100 ppm spray, wheat, 24 hour protectant, % control of fungal infection vs untreated plants; for pest or weed control at 100 ppm: Puccinia, read-out: PUCCRT in vivo 1 Day Protectant.
A further data set relates to Erysiphe graminis—ERYSGT. Kind of data set: Powdery Mildew of Wheat, in vivo whole plant, 24 Hour Protectant. The following applies: 100 ppm spray, wheat, 24 hour protectant, % control of fungal infection vs untreated plants; for pest or weed control at 100 ppm: Erysiphe, read-out: ERYSGT in vivo 1 Day Protectant.
Data set [4] deals with Mycosphaerella graminicola (Septoria tritici—SEPTTR). Kind of data set: In vitro fungal growth inhibition, Mycosphaerella graminicola (SEPTTR). It is filed as cell-based. The following applies: Zymoseptoria tritici; 25 ppm in growth medium; read-out: SEPTTR in vitro Growth Inhibition.
Data set [5] deals with Magnaporthe grisea (Pyricularia oryzae—PYRIOR). Description: microbe, parasite or virus in culture. It is filed as cell-based. To be noted: Pyricularia oryzae, read-out: PYRIOR in vitro Growth Inhibition.
The subject of a further data set is Ustilago maydis (USTIMA). Kind of data set: microbe, parasite or virus in culture. It is filed as cell-based. To be noted: Mycosarcoma maydis, read-out: USTIMA in vitro Growth Inhibition.
The subject of data set [6] is Stagonospora nodorum (Leptosphaeria nodorum—LEPTNO). Kind of data set: In vitro fungal growth inhibition, Stagonospora nodorum (LEPTNO). The following applies: Leptosphaeria; 25 ppm in growth medium; read-out: LEPTNO in vitro Growth Inhibition. It is filed as cell-based.
In another data set the test system is Septoria tritici—SEPTTR. Kind of data set: Leaf Blotch of Wheat, in vivo whole plant, 24 Hour Protectant. To be noted: 100 ppm spray, wheat, 24 hour protectant, % control of fungal infection vs untreated plants; for pest or weed control at 100 ppm: Zymoseptoria tritici, 24 h, read-out: SEPTTR in vivo 1 Day Protectant.
Data set [7] concerns Phytophthora infestans (PHYTIN). Kind of data set: microbe, parasite or virus in culture. It is filed as cell-based. To be noted: Phytophthora infestans, read-out: PHYTIN in vitro Growth Inhibition.
For data set [8], the system named is Leptosphaeria nodorum—LEPTNO. Description: Glume Blotch of Wheat, in vivo whole plant, 24 Hour Protectant. To be noted: 100 ppm spray, wheat, 24 hour protectant, % control of fungal infection vs untreated plants; for pest or weed control at 100 ppm: Leptosphaeria, read-out: LEPTNO in vivo 1 Day Protectant.

For orientation: inhibition means the relative decrease from the control value, in per cent. A word on the melting point: it is the temperature, or range, at which the solid turns liquid.

Each structure is given as a SMILES string. Bounds are passed on as bounds.

Consider `COCCC(=O)Oc1c(OC)ccnc1C(=O)N[C@H]1COC(=O)[C@H](Cc2ccccc2)[C@@H](OC(=O)C(C)(C)C)[C@H](C)OC1=O` [Compound 703], for which the melting point was in the range of 144 to 145 °C. Besides, the inhibition at 25 ppm in data set [1] is under 80%. Also, the pest or weed control at 100 ppm in data set [2] is under 25%. Moreover, the “PUCCRT in vivo 1 Day Protectant” value in data set [3] is reported as “+ +”. In addition, in the data set with Erysiphe graminis—ERYSGT, the “ERYSGT in vivo 1 Day Protectant” value is reported as “+ +”. In addition, the inhibition at 25 ppm in [4] is under 80%. The inhibition at 25 ppm in data set [5] is under 80%. Moreover, the inhibition at 25 ppm with Ustilago maydis (USTIMA) was under 80%. Further, the inhibition at 25 ppm in data set [6] is over 80%. In addition, the “SEPTTR in vivo 1 Day Protectant” value in the data set on Septoria tritici—SEPTTR was “+ +”. Also, the inhibition at 25 ppm in data set [7] is under 80%. The “LEPTNO in vivo 1 Day Protectant” value in data set [8] is given as “+ +”.
On to `COCCC(=O)Oc1c(OC)ccnc1C(=O)Nc1ccc(C(=O)c2cccc(C(F)(F)F)c2)cc1` [Compound 706], for which the melting point is 158 to 160 °C. In addition, in data set [1], the inhibition at 25 ppm is under 80%. Further, in [2], the pest or weed control at 100 ppm is under 25%. Also, in data set [3], the pest or weed control at 100 ppm was under 25%. The pest or weed control at 100 ppm in the data set with Erysiphe graminis—ERYSGT is under 25%. In addition, the inhibition at 25 ppm in [4] was under 80%. Further, in data set [5], the inhibition at 25 ppm is under 80%. Besides, in the data set with Ustilago maydis (USTIMA), the inhibition at 25 ppm is under 80%. In addition, the inhibition at 25 ppm in [6] is over 80%. The pest or weed control at 100 ppm in the data set with Septoria tritici—SEPTTR lay in the range of 25 to 74%. The inhibition at 25 ppm in data set [7] was under 80%. Besides, the pest or weed control at 100 ppm in [8] fell in the range of 25 to 74%.
As for `COc1ccnc(C(=O)Nc2ccc(Sc3cccc(C(F)(F)F)c3)cc2)c1OC(C)=O` [Compound 711], the melting point was in the range of 134 to 136 °C. Moreover, the inhibition at 25 ppm in data set [1] was under 80%. The pest or weed control at 100 ppm in data set [2] was under 25%. The pest or weed control at 100 ppm in data set [3] was under 25%. Besides, the pest or weed control at 100 ppm in the data set on Erysiphe graminis—ERYSGT was under 25%. Moreover, the inhibition at 25 ppm in data set [4] was over 80%. In data set [5], the inhibition at 25 ppm is over 80%. In addition, in the data set on Ustilago maydis (USTIMA), the inhibition at 25 ppm is under 80%. For the same molecule, in data set [6], the inhibition at 25 ppm is over 80%. For the same molecule, the “SEPTTR in vivo 1 Day Protectant” value with Septoria tritici—SEPTTR is “+ +”. Also, in data set [7], the inhibition at 25 ppm is under 80%. Besides, the pest or weed control at 100 ppm in [8] lay within 25 to 74%.
`COCCC(=O)Oc1c(OC)ccnc1C(=O)Nc1ccc(C(=O)Nc2cccc(C(F)(F)F)c2)cc1` [Compound 713] returned a melting point of 164 to 167 °C. Moreover, the inhibition at 25 ppm in data set [1] was under 80%. For the same molecule, the pest or weed control at 100 ppm in data set [2] is under 25%. Also, the pest or weed control at 100 ppm in [3] was under 25%. Further, the pest or weed control at 100 ppm in the data set with Erysiphe graminis—ERYSGT is under 25%. Besides, in data set [4], the inhibition at 25 ppm is under 80%. For the same molecule, the inhibition at 25 ppm in data set [5] was under 80%. For the same molecule, in the data set with Ustilago maydis (USTIMA), the inhibition at 25 ppm is under 80%. For the same molecule, the inhibition at 25 ppm in data set [6] was under 80%. In the data set on Septoria tritici—SEPTTR, the pest or weed control at 100 ppm was under 25%. Further, in [7], the inhibition at 25 ppm was under 80%. Also, the pest or weed control at 100 ppm in [8] is 25 to 74%.
With `COCCC(=O)Oc1c(OC)ccnc1C(=O)Nc1cccc(C(=O)Nc2ccc(C(F)(F)F)cc2)c1` [Compound 714], the melting point lay in the range of 187 to 189 °C. The inhibition at 25 ppm in [1] was under 80%. The pest or weed control at 100 ppm in data set [2] was under 25%. Besides, the pest or weed control at 100 ppm in data set [3] was under 25%. The pest or weed control at 100 ppm in the data set with Erysiphe graminis—ERYSGT is under 25%. Further, the inhibition at 25 ppm in data set [4] was under 80%. The inhibition at 25 ppm in data set [5] is under 80%. In addition, the inhibition at 25 ppm in the data set with Ustilago maydis (USTIMA) is under 80%. In [6], the inhibition at 25 ppm is under 80%. Also, the pest or weed control at 100 ppm in the data set with Septoria tritici—SEPTTR lay in the range of 25 to 74%. Besides, the inhibition at 25 ppm in data set [7] is under 80%. For the same molecule, in data set [8], the pest or weed control at 100 ppm fell in the range of 25 to 74%.
Molecule `COc1ccnc(C(=O)Nc2ccc(C(=O)Oc3cccc(C(F)(F)F)c3)cc2)c1OC(C)=O` [Compound 715] had a melting point of 166 to 169 °C. Besides, the inhibition at 25 ppm in data set [1] was under 80%. In addition, the pest or weed control at 100 ppm in data set [2] is under 25%. Moreover, the pest or weed control at 100 ppm in [3] lay within 25 to 74%. Moreover, the pest or weed control at 100 ppm in the data set on Erysiphe graminis—ERYSGT is under 25%. In addition, in data set [4], the inhibition at 25 ppm was under 80%. In addition, the inhibition at 25 ppm in data set [5] was under 80%. Further, in the data set with Ustilago maydis (USTIMA), the inhibition at 25 ppm was under 80%. Also, the inhibition at 25 ppm in data set [6] was under 80%. Moreover, in the data set on Septoria tritici—SEPTTR, the pest or weed control at 100 ppm is under 25%. Besides, the inhibition at 25 ppm in data set [7] is under 80%. Moreover, the pest or weed control at 100 ppm in data set [8] was in the range of 25 to 74%.
`COc1ccnc(C(=O)Nc2ccc(C(=O)Oc3ccc(C(F)(F)F)cc3)cc2)c1OC(C)=O` [Compound 717] had a melting point of 203 to 205 °C. The inhibition at 25 ppm in data set [1] was under 80%. For the same molecule, the pest or weed control at 100 ppm in [2] was under 25%. Moreover, the pest or weed control at 100 ppm in data set [3] is under 25%. For the same molecule, in the data set on Erysiphe graminis—ERYSGT, the pest or weed control at 100 ppm was under 25%. Besides, the inhibition at 25 ppm in [4] was under 80%. Besides, the inhibition at 25 ppm in data set [5] was under 80%. In addition, the inhibition at 25 ppm in the data set on Ustilago maydis (USTIMA) is under 80%. Moreover, the inhibition at 25 ppm in data set [6] was under 80%. Further, the pest or weed control at 100 ppm in the data set with Septoria tritici—SEPTTR was 25 to 74%. Further, in [7], the inhibition at 25 ppm is under 80%. The pest or weed control at 100 ppm in [8] lay within 25 to 74%.
On to `COCCC(=O)Oc1c(OC)ccnc1C(=O)Nc1cccc(NC(=O)c2ccc(C(F)(F)F)cc2)c1` [Compound 718], for which the melting point lay in the range of 115 to 118 °C. In addition, the inhibition at 25 ppm in data set [1] was under 80%. Moreover, the pest or weed control at 100 ppm in data set [2] is under 25%. For the same molecule, in data set [3], the pest or weed control at 100 ppm lay in the range of 25 to 74%. The pest or weed control at 100 ppm in the data set on Erysiphe graminis—ERYSGT is under 25%. Also, in data set [4], the inhibition at 25 ppm was under 80%. Moreover, the inhibition at 25 ppm in data set [5] was under 80%. Also, in the data set on Ustilago maydis (USTIMA), the inhibition at 25 ppm was under 80%. The inhibition at 25 ppm in [6] is under 80%. Further, the “SEPTTR in vivo 1 Day Protectant” value in the data set with Septoria tritici—SEPTTR was “+ +”. Besides, the inhibition at 25 ppm in data set [7] is under 80%. Also, the pest or weed control at 100 ppm in [8] lay within 25 to 74%.
As for `COc1ccnc(C(=O)Nc2ccc(NC(=O)c3cccc(C(F)(F)F)c3)cc2)c1OC(C)=O` [Compound 719], the melting point is 124 to 126 °C. Besides, the inhibition at 25 ppm in [1] is under 80%. Moreover, the pest or weed control at 100 ppm in data set [2] was under 25%. For the same molecule, in data set [3], the pest or weed control at 100 ppm is under 25%. Besides, the pest or weed control at 100 ppm in the data set on Erysiphe graminis—ERYSGT is under 25%. Moreover, in [4], the inhibition at 25 ppm is under 80%. In addition, in data set [5], the inhibition at 25 ppm was under 80%. Moreover, in the data set on Ustilago maydis (USTIMA), the inhibition at 25 ppm was under 80%. Further, the inhibition at 25 ppm in data set [6] is under 80%. Moreover, the pest or weed control at 100 ppm in the data set on Septoria tritici—SEPTTR is under 25%. For the same molecule, the inhibition at 25 ppm in data set [7] was under 80%. Besides, the pest or weed control at 100 ppm in [8] was 25 to 74%.

For the origin of these results see patent publication US6706740B2, “Fungicidal heterocyclic aromatic amides and their compositions, methods of use and preparation” (Dow AgroSciences LLC, priority 1999, dated 2004).
